The target in one experiment is T1, AR (Homo sapiens, UniProt P10275, T878A).
T1 construct: into the androgen-dependent PCa cells (LNCaP); endogenous in cells; host or cells: LNCaP-ARR2PB-eGFP
T1 sequence (P10275 1-920 T878A): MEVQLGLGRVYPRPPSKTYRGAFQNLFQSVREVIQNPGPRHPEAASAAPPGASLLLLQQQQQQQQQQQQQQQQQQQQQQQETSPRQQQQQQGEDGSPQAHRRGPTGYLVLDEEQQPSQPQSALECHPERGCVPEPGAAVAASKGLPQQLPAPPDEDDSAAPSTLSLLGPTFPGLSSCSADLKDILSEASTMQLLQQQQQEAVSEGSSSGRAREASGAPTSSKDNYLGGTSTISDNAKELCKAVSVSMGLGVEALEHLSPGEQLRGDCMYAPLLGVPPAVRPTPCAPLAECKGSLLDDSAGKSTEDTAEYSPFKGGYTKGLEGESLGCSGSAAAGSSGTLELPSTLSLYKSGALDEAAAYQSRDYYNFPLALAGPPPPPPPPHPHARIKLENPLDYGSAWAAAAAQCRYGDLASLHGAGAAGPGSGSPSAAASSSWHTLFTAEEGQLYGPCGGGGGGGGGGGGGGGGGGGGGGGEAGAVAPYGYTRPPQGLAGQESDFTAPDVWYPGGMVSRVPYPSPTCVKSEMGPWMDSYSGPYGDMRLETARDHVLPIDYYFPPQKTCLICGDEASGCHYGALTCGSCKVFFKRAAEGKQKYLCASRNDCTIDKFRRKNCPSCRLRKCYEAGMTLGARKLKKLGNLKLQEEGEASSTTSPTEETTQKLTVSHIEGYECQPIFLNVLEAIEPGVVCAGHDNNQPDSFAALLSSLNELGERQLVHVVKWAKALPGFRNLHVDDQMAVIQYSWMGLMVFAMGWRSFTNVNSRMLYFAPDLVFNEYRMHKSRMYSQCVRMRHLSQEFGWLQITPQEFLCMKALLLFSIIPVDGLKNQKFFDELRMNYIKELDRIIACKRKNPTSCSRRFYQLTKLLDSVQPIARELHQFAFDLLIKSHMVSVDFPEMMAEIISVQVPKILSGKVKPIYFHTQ
Kind of experiment: AR transcriptional activity, LNCaP-ARR2PB-eGFP reporter cells. The format is cell-based. To be noted: LNCaP-ARR2PB-eGFP cells, 5 nM DHT, 72 hours; read-out: IC50 AR transcriptional activities. An excerpt:
Detection principles: We conducted a stable transfection of promoter ARR2PB known for its strong AR responsiveness, into the androgen-dependent PCa cells (LNCaP). The expression of enhanced green fluorescent protein (eGFP) is depending on the degree of activation of AR. Therefore, LNCaP-ARR2PB-eGFP cell line could quantitatively determine the AR antagonistic activities of the compounds by evaluating the expression of eGFP.

A further experiment deals with T2, FL-AR^V684A (Homo sapiens, UniProt P10275, V685A).
T2 construct: toward full-length (FL)-AR^WT and FL-AR^V684A; expressed in transfected cells; host or cells: PC3
T2 sequence (P10275 1-920 V685A): T1 sequence (P10275 1-920 T878A) with V685A, A878T
Kind of experiment: Luciferase reporter assay in PC3 cells, AR V684A. In kind it is cell-based. To be noted: read-out: IC50 toward FL-AR^V684A. On the procedure: Detection principles: A reporter system for detecting the activities of firefly luciferase. To quantitatively detect the interaction between transcription factors and target promoters, the fluorescent intensities are detected to quantitatively evaluate the activities of firefly luciferase.
Methods: PC3 cells (no endogenous AR) treated with DMEM media supplemented with 5% CSS for 48 hours. Then, the PC3 cells (1.2×10^4/well) were seeded into 96-well plates. After 16 hours, the PC3 cells were transfected with 20 ng/well plasmid and incubated for 20 min at room temperature. After 1 day incubation, the media in the wells was replaced, followed by the addition of various concentrations of compounds. After 48 hours, the culture medium was discarded and the cells were washed with 100 μL PBS, followed by addition of 30 μL 1×PLB and the 96-well plates was shaken on a shaker for 20 min to ensure complete lysis of the cells. Then, the cell lysis supernatant (20 μL/well) was transferred to a white opaque 96-well, and addition of 30 μL Luciferase Assay Reagent II to each well. Then, the fluorescent intensities of firefly luciferase were evaluated. Afterwards, 30 μL Stop&Glo Reagant was added to the wells, and the fluorescent intensities of […] evaluated.
(In general: Reporter assays use an easily measured gene product as a stand-in for the process of interest.)

Where a chain is given by its changes, count along the chain named.

For the compound `CC(=O)Cc1nsc(NC(=O)c2cc(-c3cccc(C(F)(F)F)c3)oc2C)n1` [Compound A-1, 2-Methyl-N-(3-(2-oxopropyl)-1,2,4-thiadiazol-5-yl)-5-(3-(trifluoromethyl)phenyl)furan-3-carboxamide], the figures for the concentration for half-maximal inhibition (IC50) at AR and at FL-AR^V684A were 30 nM and 60 nM, respectively.

Source of the values: patent US20240376091A1, “THIADIAZOLEAMIDE DERIVATIVES AND THEIR APPLICATIONS” (ZHEJIANG UNIVERSITY, priority 2021, published 2024).
